≈ marks a conversion by molar mass, not a printed value.
How the values were obtained:
Type in all cases: cell-based
[1] = system: Staphylococcus aureus AH430; experiment: MIC by microtiter broth dilution, strain AH430; details: 18 hrs static; for MIC50: at least 50% inhibition of growth by OD; for MIC90: at least 90% inhibition of growth by OD
[2] = system: Staphylococcus aureus AH1872; experiment: microbe, parasite or virus in culture; details: AH1872, 18 h
[3] = system: Propionibacterium acnes HL005PA2; experiment: Growth inhibition (MIC) of Propionibacterium acnes HL005PA2; details: Cutibacterium acnes, P. acnes HL005PA2
[4] = system: Propionibacterium acnes ATCC6919; experiment: Growth inhibition (MIC) of Propionibacterium acnes ATCC6919; details: Cutibacterium acnes
[5] = system: Staphylococcus aureus AH1747; experiment: MIC by microtiter broth dilution, strain AH1747; details: 18 hrs static
[6] = system: Staphylococcus aureus UAMS-1; experiment: MIC by microtiter broth dilution, strain UAMS-1; details: 18 hrs static

Row | Compound | MIC50 [1] [µg/mL] | MIC90 [1] [µg/mL] | MIC50 [2] [µg/mL] | MIC90 [2] [µg/mL] | MIC50 ([3]; 50% inhibition of the growth control) [µg/mL] | MIC90 ([3]; 90% inhibition) [µg/mL] | MIC50 [4] [µg/mL] | MIC90 [4] [µg/mL] | MIC50 ([5]; 50% inhibition of growth) [µg/mL] | MIC90 ([5]; 90% inhibition of growth) [µg/mL] | MIC50 ([6]; UAMS1, 50% inhibition of growth) [µg/mL] | MIC90 ([6]; UAMS1, 90% inhibition of growth) [µg/mL]
1 | CC1(C)S[C@@H]2[C@H](NC(=O)[C@H](N)c3ccccc3)C(=O)N2[C@H]1C(=O)O [Amp, Ampicillin] | 0.0625 (≈ 0.179 µM) | 0.125 (≈ 0.358 µM) | 4 (≈ 11.4 µM) | 8 (≈ 22.9 µM) |  |  |  |  |  |  |  | 
2 | CCC[C@@H]1C[C@@H](C(=O)N[C@@H]([C@H]2O[C@H](SC)[C@H](O)[C@@H](O)[C@H]2O)[C@H](C)Cl)N(C)C1 [Clin, clindamycin] |  |  |  |  | 0.0625 (≈ 0.147 µM) | 0.25 (≈ 0.588 µM) | 0.125 (≈ 0.294 µM) | 0.125 (≈ 0.294 µM) |  |  |  | 
3 | NC[C@H]1O[C@H](O[C@H]2[C@H](O)[C@@H](O[C@H]3O[C@H](CO)[C@@H](O)[C@H](N)[C@H]3O)[C@H](N)C[C@@H]2N)[C@H](O)[C@@H](O)[C@@H]1O [Kan, Kanamycin] | 2 (≈ 4.13 µM) | 4 (≈ 8.26 µM) | 1 (≈ 2.06 µM) | 4 (≈ 8.26 µM) |  |  |  |  | 1 (≈ 2.06 µM) | 2 (≈ 4.13 µM) | 2 (≈ 4.13 µM) | 4 (≈ 8.26 µM)
